Experimental data reported in patent publication US20230150960A1, “COMPOSITIONS AND METHODS OF USING CYANINE DYES TO TARGET CANCER AND MITOCHONDRIA” (Thomas Jefferson University, priority 2020, published 2023).

Columns and labels:
Type in all cases: physicochemical
[1] = Solubility of sodium deoxycholate-containing formulations (post vortexing, 30 min and overnight at 18° C.); settings: compound 2 mg/mL; for solubility at 30 s: post vortexing
Method: Tables 5A, 5B, and 5C describe solubility experiments conducted with the indicated compounds under the listed conditions. Vortexing was conducted using a Denville Vortexer 59 (Denville Scientific Inc.), at maximum speed for 30 seconds. As used herein, the term overnight refers to a period lasting at least about 12-24 hours.

[2] = Solubility of glycerol-containing formulations (post vortexing, 30 min and overnight at 18° C.); settings: compound 2 mg/mL; for solubility at 30 min / solubility / solubility at 30 s: glycerol-containing formulation; for solubility at 30 min / solubility: 18 °C; for solubility at 30 min: after 30 minutes incubation at 18° C.; for solubility at 30 s: post vortexing
Method: Tables 3A, 3B, and 3C describe solubility experiments conducted with the indicated compounds under the listed conditions. Vortexing was conducted using a Denville Vortexer 59 (Denville Scientific Inc.), at maximum speed for 30 seconds. As used herein, the term overnight refers to a period lasting at least about 12-24 hours.

[3] = Solubility of BSA-containing formulations (post vortexing, 30 min and overnight at 18° C.); settings: compound 2 mg/mL; for solubility at 30 min / solubility: BSA-containing formulation, 18 °C, aqueous with cosolvent or surfactant or cyclodextrin; for solubility at 30 min: after 30 minutes incubation at 18° C.
Method: Vortexing was conducted using a Denville Vortexer 59 (Denville Scientific Inc.), at maximum speed for 30 seconds. As used herein, the term overnight refers to a period lasting at least about 12-24 hours.

CCN1/C(=C/C=C/c2sc3ccccc3[n+]2CC)Sc2ccccc21 [JAC-B1, 3′,3′-Diethylthiacarbocyanine iodide]
Solubility of sodium deoxycholate-containing formulations after 30 min incubation at 18° C., 50 mg/mL ([1]; sodium deoxycholate 50 mg/mL, after 30 minutes incubation at 18° C.): MFG | Solubility of sodium deoxycholate-containing formulations after 30 min incubation at 18° C., 100 mg/mL ([1]; sodium deoxycholate 100 mg/mL, after 30 minutes incubation at 18° C.): MFG | solubility at 30 s ([1]; sodium deoxycholate-containing formulation, aqueous with cosolvent or surfactant or cyclodextrin, sodium deoxycholate 12.5 mg/mL, read-out: Solubility of sodium deoxycholate-containing formulations post vortexing, 12.5 mg/mL): < 2000 µg/mL | solubility at 30 s ([1]; sodium deoxycholate-containing formulation, aqueous with cosolvent or surfactant or cyclodextrin, sodium deoxycholate 25 mg/mL, read-out: Solubility of sodium deoxycholate-containing formulations post vortexing, 25 mg/mL): < 2000 µg/mL | solubility at 30 s ([1]; sodium deoxycholate-containing formulation, aqueous with cosolvent or surfactant or cyclodextrin, sodium deoxycholate 50 mg/mL, read-out: Solubility of sodium deoxycholate-containing formulations post vortexing, 50 mg/mL): < 2000 µg/mL | solubility at 30 s ([1]; sodium deoxycholate-containing formulation, aqueous with cosolvent or surfactant or cyclodextrin, sodium deoxycholate 100 mg/mL, read-out: Solubility of sodium deoxycholate-containing formulations post vortexing, 100 mg/mL): < 2000 µg/mL | solubility at 30 min ([1]; sodium deoxycholate-containing formulation, aqueous with cosolvent or surfactant or cyclodextrin, sodium deoxycholate 12.5 mg/mL, after 30 minutes incubation at 18° C.): < 2000 µg/mL | solubility ([1]; sodium deoxycholate-containing formulation, aqueous with cosolvent or surfactant or cyclodextrin, sodium deoxycholate 12.5 mg/mL, overnight incubation at 18° C., read-out: Solubility of sodium deoxycholate-containing formulations after overnight incubation at 18° C., 12.5 mg/mL): < 2000 µg/mL | Solubility of glycerol-containing formulations after overnight incubation at 18° C., 50% ([2]; 50% glycerol, overnight incubation at 18° C.): MFG | solubility at 30 min ([2]; aqueous with cosolvent or surfactant or cyclodextrin, 10% glycerol, read-out: Solubility of glycerol-containing formulations after 30 min incubation at 18° C., 10%): < 2000 µg/mL | solubility ([2]; aqueous with cosolvent or surfactant or cyclodextrin, 10% glycerol, overnight incubation at 18° C., read-out: Solubility of glycerol-containing formulations after overnight incubation at 18° C., 10%): < 2000 µg/mL | solubility at 30 min ([2]; aqueous with cosolvent or surfactant or cyclodextrin, 20% glycerol, read-out: Solubility of glycerol-containing formulations after 30 min incubation at 18° C., 20%): < 2000 µg/mL | solubility ([2]; aqueous with cosolvent or surfactant or cyclodextrin, 20% glycerol, overnight incubation at 18° C., read-out: Solubility of glycerol-containing formulations after overnight incubation at 18° C., 20%): < 2000 µg/mL | solubility at 30 min ([2]; aqueous with cosolvent or surfactant or cyclodextrin, 30% glycerol, read-out: Solubility of glycerol-containing formulations after 30 min incubation at 18° C., 30%): < 2000 µg/mL | solubility ([2]; aqueous with cosolvent or surfactant or cyclodextrin, 30% glycerol, overnight incubation at 18° C., read-out: Solubility of glycerol-containing formulations after overnight incubation at 18° C., 30%): < 2000 µg/mL | solubility at 30 min ([2]; aqueous with cosolvent or surfactant or cyclodextrin, 40% glycerol, read-out: Solubility of glycerol-containing formulations after 30 min incubation at 18° C., 40%): < 2000 µg/mL | solubility ([2]; aqueous with cosolvent or surfactant or cyclodextrin, 40% glycerol, overnight incubation at 18° C., read-out: Solubility of glycerol-containing formulations after overnight incubation at 18° C., 40%): < 2000 µg/mL | solubility at 30 min ([2]; aqueous with cosolvent or surfactant or cyclodextrin, 50% glycerol, read-out: Solubility of glycerol-containing formulations after 30 min incubation at 18° C., 50%): > 2000 µg/mL | solubility at 30 min ([2]; 0% glycerol, read-out: Solubility of glycerol-containing formulations after 30 min incubation at 18° C., 0%): < 2000 µg/mL | solubility ([2]; 0% glycerol, overnight incubation at 18° C., read-out: Solubility of glycerol-containing formulations after overnight incubation at 18° C., 0%): < 2000 µg/mL | solubility at 30 s ([2]; aqueous with cosolvent or surfactant or cyclodextrin, 10% glycerol, read-out: Solubility of glycerol-containing formulations post vortexing, 10%): < 2000 µg/mL | solubility at 30 s ([2]; aqueous with cosolvent or surfactant or cyclodextrin, 20% glycerol, read-out: Solubility of glycerol-containing formulations post vortexing, 20%): < 2000 µg/mL | solubility at 30 s ([2]; aqueous with cosolvent or surfactant or cyclodextrin, 30% glycerol, read-out: Solubility of glycerol-containing formulations post vortexing, 30%): < 2000 µg/mL | solubility at 30 s ([2]; aqueous with cosolvent or surfactant or cyclodextrin, 40% glycerol, read-out: Solubility of glycerol-containing formulations post vortexing, 40%): < 2000 µg/mL | solubility at 30 s ([2]; aqueous with cosolvent or surfactant or cyclodextrin, 50% glycerol, read-out: Solubility of glycerol-containing formulations post vortexing, 50%): > 2000 µg/mL | solubility at 30 s ([2]; 0% glycerol, read-out: Solubility of glycerol-containing formulations post vortexing, 0%): < 2000 µg/mL | solubility at 30 min ([3]; BSA 5 mg/mL, read-out: Solubility of BSA-containing formulations after 30 min incubation at 18° C., 5 mg/mL): < 2000 µg/mL | solubility at 30 min ([3]; BSA 10 mg/mL, read-out: Solubility of BSA-containing formulations after 30 min incubation at 18° C., 10 mg/mL): < 2000 µg/mL | solubility at 30 min ([3]; BSA 15 mg/mL, read-out: Solubility of BSA-containing formulations after 30 min incubation at 18° C., 15 mg/mL): < 2000 µg/mL | solubility at 30 min ([3]; BSA 25 mg/mL, read-out: Solubility of BSA-containing formulations after 30 min incubation at 18° C., 25 mg/mL): > 2000 µg/mL | solubility at 30 min ([3]; BSA 80 mg/mL, read-out: Solubility of BSA-containing formulations after 30 min incubation at 18° C., 80 mg/mL): > 2000 µg/mL | solubility ([3]; BSA 80 mg/mL, overnight incubation at 18° C., read-out: Solubility of BSA-containing formulations after overnight incubation at 18° C., 80 mg/mL): > 2000 µg/mL | solubility at 30 min ([3]; BSA 100 mg/mL, read-out: Solubility of BSA-containing formulations after 30 min incubation at 18° C., 100 mg/mL): > 2000 µg/mL | solubility ([3]; BSA 100 mg/mL, overnight incubation at 18° C., read-out: Solubility of BSA-containing formulations after overnight incubation at 18° C., 100 mg/mL): > 2000 µg/mL | Solubility of BSA-containing formulations after overnight incubation at 18° C., 5 mg/mL ([3]; BSA 5 mg/mL, overnight incubation at 18° C.): MFG | Solubility of BSA-containing formulations after overnight incubation at 18° C., 10 mg/mL ([3]; BSA 10 mg/mL, overnight incubation at 18° C.): MFG | Solubility of BSA-containing formulations after overnight incubation at 18° C., 15 mg/mL ([3]; BSA 15 mg/mL, overnight incubation at 18° C.): MFG | Solubility of BSA-containing formulations after overnight incubation at 18° C., 25 mg/mL ([3]; BSA 25 mg/mL, overnight incubation at 18° C.): MFG
